In publication PMC10269165 (Antimicrobial Agents and Chemotherapy, 2023):
Like-named read-outs stand apart in the source and are kept apart here.

Tests used:
[1] = test system: nematode PMTs (HcPMT1, AcPMT1, AsPMT, DvPMT1, OdPMT1, TcPMT); experiment: Cross-inhibition of the panel of nematode PMTs (statements on all PMTs together); format: biochemical, parasitic nematodes; details: for cross-inhibitory activity against all the five PMTs: 40 μM, AcPMT1, AsPMT, DvPMT1, OdPMT1, TcPMT; for SI values based on the IC50^Enzyme values of the PMT proteins tested: all six PMTs of Table 4
Procedure: The chemical compounds were obtained from the National Cancer Institute/Developmental Therapeutics Program Open Chemical Repository. The library consisted of 419 compounds categorized as Natural Products Set IV (see Table S1). Compounds were individually reconstituted in molecular biology grade dimethyl sulfoxide (DMSO) from Sigma-Aldrich to a stock concentration of 10 mM and stored at −20°C until use. Initial screening was conducted using recombinant HcPMT1 protein as enzyme in the methyltransferase assay, with test compounds at a final concentration of 40 μM. The test reaction mixtures consisted of 40 μM test compound, 2.5 μL of SAM-free methyltransferase reaction buffer, 150 μM PE (pH 7.5), 120 μM SAM (pH 7.8), and 20 ng/μL of HcPMT1 protein, and the final volume made up to 50 μL with 1× transferase assay buffer. […] To the positive reaction mixture, instead of test compound, an equivalent volume of DMSO was added. In the negative-control reaction mixture, instead of HcPMT1 and test compound, equivalent volumes of 1× transferase buffer and DMSO, respectively, were added. Detection buffer (100 μL) containing fluorescence substrate was added into each reaction mixture. The reactions were prepared in triplicate wells in 96-well plates. The plates were covered in aluminum foil and incubated at room temperature with agitation for 30 min, followed by reading the fluorescence at 380EX/520EM. The mean percent inhibition (MPI) of the test compound on enzymatic activity was calculated using the following formula: MPI = ΔRFUpositive control − ΔRFUcompounds/ΔRFUpositive control × 100, where the positive control is a reaction without compound but with recombinant PMT protein and a volume of DMSO equivalent to that of compound used in test reactions; the negative control is the reaction without protein and compounds, but with volumes of dialysis buffer and DMSO equivalent to protein and compound added in the test reaction mixtures, respectively; ΔRFUpositive control represents the absolute relative fluorescence units (RFU) for the positive control, which equals RFUpositive control – RFUnegative control; and ΔRFUcompounds represents the absolute RFU value for the sample with the compounds, which equals RFUcompounds – RFUnegative control.
Compounds that had shown more than 50% inhibition on HcPMT1 activity and had no or very low cytotoxicity against HCT-8 cells were further tested for cross-inhibitory effect against the enzymatic activity of other recombinant PMT proteins (AcPMT1, AsPMT, DvPMT1, OdPMT, and TcPMT) at 40 μM. The enzymatic assay was set up as described above, with the respective PMT protein as enzyme. Compounds that depicted cross-inhibitory activity were further tested at various concentrations to derive their half-maximal effective concentrations (EC50) using nonlinear regression analysis by GraphPad Prism software.

[2] = test system: HcPMT1+2-complemented pem1Δ/pem2Δ S. cerevisiae; experiment: Growth inhibition of complemented yeast; format: cell-based, Saccharomyces cerevisiae; details: read-out: Mean growth inhibition EC50 ± SEM on complemented yeast, HcPMT1+2
Procedure, shortened: (§1)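 IC50 values derive from day-3 percent growth rate versus vehicle in choline-starved cultures on 1 mM ethanolamine-supplemented SG galactose medium, 30°C.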

[3] = test system: OdPMT-complemented pem1Δ/pem2Δ S. cerevisiae; experiment: Growth inhibition of complemented yeast; format: cell-based, Saccharomyces cerevisiae; details: read-out: Mean growth inhibition EC50 ± SEM on complemented yeast, OdPMT
Procedure, shortened: as §1

[4] = test system: PMT-complemented mutant yeast; experiment: Growth inhibition of complemented yeast (statement on PMT-complemented strains together); format: cell-based, Saccharomyces cerevisiae; details: various concentrations
Procedure: To determine the effect of PMT inhibitors on the growth of PMT- and LacZ-complemented pem1Δpem2Δ S. cerevisiae, the yeast cells were first starved of choline as described above, and the cells were diluted to an OD600 of ~0.6. The PMT-complemented yeast cells were cultured in SG medium (3.4g/L yeast nitrogen base without amino acids, 2% galactose, 30 mg/L histidine, 100 mg/L leucine, 100 mg/L adenine, and 50 mg/L tryptophan) supplemented with 1 mM ethanolamine hydrochloride, while the LacZ-complemented yeast cells were cultured in SG medium supplemented with 1 mM choline chloride. Compounds that depicted cross-inhibitory activity against PMT proteins in vitro were added at various concentrations to the cultures. As a negative control, DMSO (at a final concentration not exceeding 2% [vol/vol]) was added to yeast cultures designated control cultures. The cultures were incubated at 30°C with shaking at 275 rpm for 4 days. On a daily basis during the course of culture, 200-μL portions of culture aliquots were taken, and their OD600s were measured using a microplate reader. In preliminary work, we had observed that the growth of PMT- and LacZ-complemented pem1Δpem2Δ S. cerevisiae plateaued at 3 to 4 days of culture. Therefore, to determine the inhibitory effect of nematode PMT inhibitors on the growth of PMT- and LacZ-complemented pem1Δpem2Δ S. cerevisiae, measurements taken on day 3 were used. The results were presented as percentage of growth rate using the following formula: PGR = growth rate (plus inhibitor)/growth rate (minus inhibitor) × 100 where the percent growth rate (PGR) is the growth rate of inhibitor-treated PMT- or LacZ- complemented Pem1Δpem2Δ S. cerevisiae, considering the growth rate of untreated PMT- or LacZ- complemented Pem1Δpem2Δ S. cerevisiae is 100%; the growth rate = ΔA600^Day 3/ΔA600^Day 0; ΔA600^Day 0 is the absolute value of A600 of PMT- or LacZ- complemented pem1Δ/pem2Δ S. cerevisiae at day 0, which equals the A600 of the culture minus the A600 of the growth medium only; ΔA600^Day 3 is the absolute value of the A600 of PMT- or LacZ complemented pem1Δ/pem2Δ S. cerevisiae at day 3, which equals the A600 of the culture at day 3 minus the A600 of growth medium only; the growth rate (plus inhibitor) is the growth rate of PMT- or -LacZ complemented pem1Δpem2Δ S. cerevisiae in the presence of test compound; and the growth rate (minus inhibitor) is the growth rate of the PMT- or LacZ complemented pem1Δ/pem2Δ S. cerevisiae in the absence of test compound, but with a volume of DMSO equal to that of compound added in the treated culture. The dose-response curves were generated with GraphPad Prism software and IC50 concentrations of the compounds in PMT- and LacZ-complemented yeast cells derived.

[5] = test system: MDR isolate of H. contortus, exsheathed L3 larvae; experiment: Larval motility assay (LMA), Worminator; format: cell-based, Haemonchus contortus
[6] = medium with ethanolamine, no choline, day 3

| SMILES | cross-inhibitory activity against all the five PMTs [1] | SI values based on the IC50^Enzyme values of the PMT proteins tested [1] | EC50 ([2]; Saccharomyces cerevisiae, 72 h) [µM] | EC50 ([3]; Saccharomyces cerevisiae, 72 h) [µM] | effect on the growth of PMT-complemented mutant yeast [4] | EC50 [2, 6] [µM] | EC50 [3, 6] [µM] | Percent inhibition of larval motility ([5]; 62.5 µM, 1 hour) [%] | Percent inhibition of larval motility ([5]; 62.5 µM, 72 hours) [%] | Percent inhibition of larval motility ([5]; 62.5 µM, 96 hours) [%] | Percent inhibition of larval motility ([5]; 62.5 µM, Initial) [%] | Percent inhibition of larval motility ([5]; 250 µM, 4 hours) [%] | Percent inhibition of larval motility ([5]; 250 µM, 72 hours) [%] |
| --- | --- | --- | --- | --- | --- | --- | --- | --- | --- | --- | --- | --- | --- |
| O=c1c(O)cccc2cc(O)c(O)c(O)c12 [NSC35676, purpurogallin] | significant cross-inhibitory activity | > 1 | 5.45 ± 0.95 | 3.98 ± 1.08 | concentration-dependent inhibitory effect | – | – | – | – | – | – | – | – |
| CO[C@@]12[C@H](COC(N)=O)C3=C(C(=O)C(C)=C(N)C3=O)N1C[C@H]1[C@@H]2N1C (some centres unmarked) [NSC56410] | significant cross-inhibitory activity | – | 1.48 ± 0.21 | 37.6 ± 4.87 | concentration-dependent inhibitory effect | – | – | – | – | – | – | – | – |
| COc1ccc(-c2c(C)c(C(=O)O)nc(-c3ccc4c(O)c(OC)c5c(c4n3)=NC(C)(C)N=5)c2N)c(O)c1OC [NSC62709] | significant cross-inhibitory activity | > 1 | – | – | concentration-dependent inhibitory effect | 3.03 ± 0.26 | 19.5 ± 2.56 | – | – | – | – | – | – |
| COc1cc(C)c2c(c1C=O)Oc1c(c(C)c(O)c3c1C(O)OC3=O)OC2=O (centres unmarked) [NSC87511] | significant cross-inhibitory activity | – | – | – | concentration-dependent inhibitory effect | 2.08 ± 0.29 | 57.9 ± 5.18 | – | – | – | – | – | – |
| CO[C@H]1/C=C/O[C@@]2(C)Oc3c(C)c(O)c4c(O)c(cc(O)c4c3C2=O)NC(=O)/C(C)=C\C=C\[C@H](C)[C@H](O)[C@@H](C)[C@@H](O)[C@@H](C)[C@H](OC(C)=O)[C@@H]1C [NSC133100] | significant cross-inhibitory activity | > 1 | – | – | concentration-dependent inhibitory effect | 18.7 ± 2.07 | 36.6 ± 8.4 | 13.5 | -9.5 | -1.6 | -25.7 | -5.6 | -1.2 |
| CO[C@@H]1/C=C\O[C@]2(C)Oc3c(C)c(O)c4c(O)c(c(CN(C)C)c(O)c4c3C2=O)NC(=O)/C(C)=C\C=C[C@@H](C)[C@@H](O)[C@H](C)[C@@H](O)[C@H](C)[C@H](OC(C)=O)[C@@H]1C [NSC145612] | significant cross-inhibitory activity | > 1 | – | – | concentration-dependent inhibitory effect | 8.28 ± 0.99 | 32.8 ± 2.64 | 16.7 | 18.3 | 3.8 | 10.1 | 47.0 | 9.2 |
| CO[C@@H]1/C=C/O[C@@]2(C)Oc3c(C)c(O)c4c(c3C2=O)C(=N[C@@H]2CC[C@@H](O)O[C@H]2C)C=C(NC(=O)/C(C)=C\C(=O)[C@@H]2C[C@@H]2[C@H](O)[C@@H](C)[C@@H](O)[C@@H](C)[C@H](OC(C)=O)[C@@H]1C)C4=O [NSC177383] | significant cross-inhibitory activity | > 1 | – | – | – | 6.11 ± 1.84 | 19.8 ± 3.9 | 3.9 | 19.1 | 14.7 | 16.5 | -42.2 | 46.1 |
